The values that follow come from US8598384B2, “Crystalline teglicar” (Sigma-Tau Industrie Farmaceutiche Riunite S.p.A., priority 2007, dated 2013).

Data set [1] can be described thus: Karl Fisher analysis (water content), hygroscopic stability. In kind it is physicochemical. The note with it: exposed to the air for 18 hours; for KF (% H2O) t = 18 h: kept at room temperature. Here is the method: Water content analysis were carried out with a Metrohm's KF Coulometer, using Metrohm glass vials (volume 10 mL) with elastometric tight closure, with about 10÷40 mg of sample. The samples were analyzed at 140° C.
The reference was an empty vial of the same kind. Sodium Tartrate diHydrate (theoretical amount is 15.66%) was used to assess the calibration of the apparatus with regard to the humidity.
Then these compounds were kept at room temperature under the same conditions, exposed to the air for 18 hours.

For a further data set, the system named is serum glucose levels. The note with it: diabetic mouse model; cited from earlier work.
In a further data set the test system is ketogenesis. The note with it: in vivo, fasted rats; cited from earlier work.
Data set [2] addresses T1, L-CPT I (liver CPT isoform I) (Homo sapiens, UniProt P50416).
T1 sequence (P50416 1-773): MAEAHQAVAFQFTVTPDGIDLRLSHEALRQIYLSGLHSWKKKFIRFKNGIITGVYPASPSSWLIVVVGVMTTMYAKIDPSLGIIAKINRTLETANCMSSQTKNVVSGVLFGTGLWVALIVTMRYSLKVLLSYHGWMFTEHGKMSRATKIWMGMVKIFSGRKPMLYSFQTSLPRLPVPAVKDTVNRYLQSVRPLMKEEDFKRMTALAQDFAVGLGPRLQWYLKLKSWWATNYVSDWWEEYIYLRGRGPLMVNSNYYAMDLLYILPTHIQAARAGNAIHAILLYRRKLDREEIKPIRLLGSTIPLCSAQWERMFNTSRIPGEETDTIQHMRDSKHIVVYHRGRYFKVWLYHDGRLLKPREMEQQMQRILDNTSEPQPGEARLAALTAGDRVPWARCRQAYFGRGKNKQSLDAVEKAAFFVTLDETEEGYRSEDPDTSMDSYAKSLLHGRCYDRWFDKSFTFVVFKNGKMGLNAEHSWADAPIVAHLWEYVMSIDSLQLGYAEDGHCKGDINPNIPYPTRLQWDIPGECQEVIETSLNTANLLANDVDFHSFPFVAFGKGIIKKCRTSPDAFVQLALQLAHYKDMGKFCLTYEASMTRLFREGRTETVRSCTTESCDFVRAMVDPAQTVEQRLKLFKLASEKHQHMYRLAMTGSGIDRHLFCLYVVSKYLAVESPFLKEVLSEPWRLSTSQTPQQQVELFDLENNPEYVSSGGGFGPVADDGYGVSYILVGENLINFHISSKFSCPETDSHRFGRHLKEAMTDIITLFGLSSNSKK
To be noted: in vitro; cited from earlier work.

With `CCCCCCCCCCCCCCNC(=O)N[C@H](CC(=O)[O-])C[N+](C)(C)C` [Comparative Example 2, R-4-trimethylammonium-3-(tetradecylcarbamoyl)-amino butyrate], the “KF (% H2O) t = 18 h” value in data set [1] came to 15.2%. Also, in data set [1] (room temperature, repeated KF analysis), the “change of H2O content after exposure to air” value is on record as “large increase of H2O content”.
For the molecule `CCCCCCCCCCCCCCNC(=O)N[C@H](CC(=O)[O-])C[N+](C)(C)C` [Example 1, R-4-trimethylammonium-3-(tetradecylcarbamoyl)-amino butyrate], the “KF (% H2O) t = 18 h” value in data set [1] worked out at 5.8%.
For `CCCCCCCCCCCCCCNC(=O)N[C@H](CC(=O)[O-])C[N+](C)(C)C` [teglicar, R-4-trimethylammonium-3-(tetradecylcarbamoyl)-amino butyrate], in the data set on serum glucose levels, the “change in heart weight and triglycerides content” value is listed as “without any significant change”; the “effect on serum glucose levels” value is “good reduction of serum glucose levels”. Also, the effect on ketogenesis result in the data set with ketogenesis was “depress ketogenesis”. The “selectivity of inhibition of L-CPT I with respect to M-CPT I” value in data set [2] was “selectively inhibit”.
